The source of these data is US11208387B2, “Macrocyclic broad spectrum antibiotics” (Genentech, Inc., priority 2019, dated 2021).

In brackets after ≈: the same amount, converted by molar mass. Like-named read-outs stand apart in the source and are kept apart here.

Common to all, as to assay: Serum MIC, broth micro-dilution
What all share (type): cell-based

Test [1] concerns Acinetobacter baumannii ATCC 17978. The note with it: Acinetobacter baumannii, ATCC17978. On the procedure:
(§1) In vitro antimicrobial activity of each compound was determined by measuring minimal inhibitor concentrations (MICs) using the broth micro-dilution technique as approved by the Clinical and Laboratory Standards Institute (CLSI) (Methods for Dilution Antimicrobial Susceptibility Tests for Bacteria that Grow Aerobically; Approved Standard—Eighth Edition. CLSI document M07-A8. Wayne, Pa.: Clinical and Laboratory Standards; 2009). Antibacterial activity was measure against Escherichia coli strain ATCC 25922 (E. coli), Klebsiella pneumoniae ATCC 700603 (K. pneumoniae), Acinetobacter baumannii ATCC 17978 (A. baumannii), and Pseudomonas aeruginosa PA01 (P. aeruginosa), each of which is representative of a clinically relevant Gram-negative species. Cells were inoculated onto plates of Mueller Hinton Agar and grown at 37° C. for 16-18 hours. Inocula suspensions were prepared by scraping cells into 1 mL of testing media (Mueller Hinton II cation adjusted Broth) and diluting to a final OD 600 nm of 0.01.
(§2) Test compounds were prepared in DMSO at a concentration of […]. The compounds were tested under several different dilution formats. In protocol 1, the compound stocks were diluted into testing media at a concentration of 64 μg/ml and serial 2-fold dilutions were made in the same media, in 96-well U bottom microtiter dishes, for a total of 10 compound concentrations. In protocol 2, the compound stocks were diluted into testing media at a concentration of 4 μg/mL and serial 2-fold dilutions were made in the same media, in 96-well U bottom microtiter dishes, for a total of 10 compound concentrations. In protocol 3, compound stocks were diluted into testing media at a concentration of 0.5 μg/mL, with serial 2-fold dilutions conducted as described above. In protocol 4, compound stocks were diluted into testing media at a concentration of 0.13 μg/mL, with serial 2-fold dilutions conducted as described above. Inocula suspensions were added to the 2-fold serial dilutions of test compounds to a final density of OD 600 nm of 0.0005 and incubated at 35° C. for 22 hours. […] To assess antimicrobial activity in the presence of plasma proteins, MICs were also determined in growth media supplemented with 50% serum. Bacterial inocula and test compound dilution plates were prepared using the same protocol as described above for the standard MICs assay, with the exception that a mixture of 50% v/v Mueller Hinton II cation adjusted Broth and 50% v/v mouse sterile filtered serum (Equitech-Bio) was used in place of 100% Mueller Hinton II cation adjusted Broth. The results are listed in Table 3 (MIC, IC50 values micromolar).

Test [2] relates to Klebsiella pneumoniae ATCC 700603. The note with it: Klebsiella pneumoniae, ATCC700603. The method, then:
as §1, §2

Test [3] has as its system Escherichia coli strain ATCC 25922. The conditions noted are these: Escherichia coli, ATCC25922, read-out: E. coli 25922 Serum MIC. On the procedure:
as §1, §2

Test [4] has as its system Pseudomonas aeruginosa PA01. The note with it: Pseudomonas aeruginosa, PA01, read-out: P. aeruginosa 01 Serum MIC. The method, then: as §1, §2
[5] abbreviates: 50% v/v mouse serum in Mueller Hinton II cation adjusted Broth, 35° C., 22 hours, Table 4, read-out: A. baumanii 17978 Serum MIC.
[6] abbreviates: 50% v/v mouse serum in Mueller Hinton II cation adjusted Broth, 35° C., 22 hours, Table 5, read-out: Acinetobacter baumanii 17978 Serum MIC.
Where [7] appears, read: 50% v/v mouse serum in Mueller Hinton II cation adjusted Broth, 35° C., 22 hours, Table 4, read-out: K pneumoniae 700603 Serum MIC.
Where [8] appears, read: 50% v/v mouse serum in Mueller Hinton II cation adjusted Broth, 35° C., 22 hours, Table 4.
Setting [9] is: 50% v/v mouse serum, compounds of Table 1, Table 7, read-out: A. baumanii 17978 Serum MIC.
Where [10] appears, read: 50% v/v mouse serum, compounds of Table 1, Table 7, read-out: K. pneumoniae 700603 Serum MIC.
[11] abbreviates: 50% v/v mouse serum, compounds of Table 1, Table 7.

In general, MIC refers to the least concentration at which growth counts as inhibited. For the compound `C[C@@H]1NC(=O)[C@@H](N(C)C(=O)[C@H](CCN)NC(=O)c2c(N)nc(-c3ccc(C(C)(C)C)cc3)nc2Cl)c2cc(OC[C@H](O)CN)c(O)c(c2)-c2cc(ccc2OC[C@H](O)CN)C[C@@H](C(=O)O)NC1=O` [Example 55, (8S,11S,14S)-18-hydroxy-11-methyl-14-[methyl-[(2S)-4-amino-2-[[4-amino-2-(4-tert-butylphenyl)-6-chloro-pyrimidine-5-carbonyl]amino]-butanoyl]amino]-10,13-dioxo-3,17-bis[(2R)-3-amino-2-hydroxy-propoxy]-9,12-diazatricyclo-[13.3.1.12,6]icosa-1(18),2(20),3,5,15(19), 16-hexaene-8-carboxylic acid], the MIC was 6 µM (≈ 5.78 µg/mL) in test [1] (setting [5]); 6 µM (≈ 5.78 µg/mL) in test [1] (setting [6]); 0.19 µM (≈ 0.183 µg/mL) in test [2] (setting [7]); 0.19 µM (≈ 0.183 µg/mL) in test [3] (setting [8]); 6 µM (≈ 5.78 µg/mL) in test [4] (setting [8]).
On to `Cc1cc(-c2ccc(C(C)(C)C)cc2)nc(N)c1C(=O)N[C@@H](CNS(N)(=O)=O)C(=O)N(C)[C@@H]1C(=O)N[C@@H](C)C(=O)N[C@H](C(=O)O)Cc2ccc(OC[C@H](O)CN)c(c2)-c2cc1cc(OC[C@H](O)CN)c2O` [Example 49, (8S,11S,14S)-14-[[(2S)-2-[[2-amino-6-(4-tert-butylphenyl)-4-methyl-pyridine-3-carbonyl]amino]-3-(sulfamoylamino)-propanoyl]-methyl-amino]-3,17-bis[(2R)-3-amino-2-hydroxy-propoxy]-18-hydroxy-11-methyl-10,13-dioxo-9,12-diazatri-cyclo[13.3.1.12,6]icosa-1(18),2(20),3,5,15(19), 16-hexaene-8-carboxylic acid], for which the minimum inhibitory concentration (MIC) was 16 µM (≈ 16.1 µg/mL) in test [1] (setting [5]); 16 µM (≈ 16.1 µg/mL) in test [1] (setting [6]); 1 µM (≈ 1.01 µg/mL) in test [2] (setting [7]); 0.5 µM (≈ 0.504 µg/mL) in test [3] (setting [8]); 8 µM (≈ 8.06 µg/mL) in test [4] (setting [8]).
With `Cc1nc(-c2ccc(C(F)(F)C(C)C)cc2)ncc1C(=O)N[C@@H](CNS(N)(=O)=O)C(=O)N(C)[C@@H]1C(=O)N[C@@H](C)C(=O)N[C@H](C(=O)O)Cc2ccc(OC[C@H](O)CN)c(c2)-c2cc1cc(OC[C@H](O)CN)c2O` [Example 10, (8S,11S,14S)-18-hydroxy-11-methyl-14-[methyl-[(2S)-2-[[2-[4-(1,1-difluoro-2-methyl-propyl)-phenyl]-4-methyl-pyrimidine-5-carbonyl]amino]-3-(sulfamoylamino)-propanoyl]amino]-10,13-dioxo-3,17-bis[(2R)-3-amino-2-hydroxy-propoxy]-9,12-diazatricyclo-[13.3.1.12,6]icosa-1(18),2(20),3,5,13(19), 16-hexaene-8-carboxylic acid], the MIC in test [1] (setting [5]) came out at 32 µM (≈ 32.9 µg/mL); in test [1] (setting [6]), 32 µM (≈ 32.9 µg/mL); in test [2] (setting [7]), 1 µM (≈ 1.03 µg/mL); in test [3] (setting [8]), 0.5 µM (≈ 0.515 µg/mL); in test [4] (setting [8]), 32 µM (≈ 32.9 µg/mL).
For `CCCCc1ccc(-c2nc(C)c(C(=O)N[C@@H](CNS(N)(=O)=O)C(=O)N(C)[C@@H]3C(=O)N[C@@H](C)C(=O)N[C@H](C(=O)O)Cc4ccc(OC[C@H](O)CN)c(c4)-c4cc3cc(OC[C@H](O)CN)c4O)c(N)n2)cc1` [Example 36, (8S,11S,14S)-14-[[(2S)-2-[[4-amino-2-(4-butylphenyl)-6-methyl-pyrimidine-5-carbonyl]amino]-3-(sulfamoylamino)-propanoyl]-methyl-amino]-3,17-bis[(2R)-3-amino-2-hydroxy-propoxy]-18-hydroxy-11-methyl-10,13-dioxo-9,12-diazatri-cyclo[13.3.1.12,6]icosa-1(18),2(20),3,5,15(19), 16-hexaene-8-carboxylic acid], the minimal inhibitory concentration (MIC) was found to be 16 µM (≈ 16.1 µg/mL) in test [1] (setting [5]); 16 µM (≈ 16.1 µg/mL) in test [1] (setting [6]); 1 µM (≈ 1.01 µg/mL) in test [2] (setting [7]); 0.75 µM (≈ 0.756 µg/mL) in test [3] (setting [8]); 16 µM (≈ 16.1 µg/mL) in test [4] (setting [8]).
As for `Cc1nc(-c2ccc(C(C)(C)C)cc2)ncc1C(=O)N[C@@H](CN)C(=O)N(C)[C@@H]1C(=O)N[C@@H](C)C(=O)N[C@H](C(=O)O)Cc2ccc(OC[C@H](O)CN)c(c2)-c2cc1cc(OC[C@H](O)CN)c2O` [Example 31, (8S,11S,14S)-18-hydroxy-11-methyl-14-[methyl-[(2S)-3-amino-2-[[2-(4-tert-butylphenyl)-4-methyl-pyrimidine-5-carbonyl]amino]-propanoyl]amino]-10,13-dioxo-3,17-bis[(2R)-3-amino-2-hydroxy-propoxy]-9,12-diazatricyclo-[13.3.1.12,6]icosa-1(18),2(20),3,5,15(19), 16-hexaene-8-carboxylic acid], the MIC came out at 32 µM (≈ 29.2 µg/mL) in test [1] (setting [5]); 32 µM (≈ 29.2 µg/mL) in test [1] (setting [6]); 0.75 µM (≈ 0.686 µg/mL) in test [2] (setting [7]); 1 µM (≈ 0.914 µg/mL) in test [3] (setting [8]); 48 µM (≈ 43.9 µg/mL) in test [4] (setting [8]).
As for `Cc1cc(C(C)(C)C)cc(O)c1-c1nc(C)c(C(=O)N[C@@H](CNS(N)(=O)=O)C(=O)N(C)[C@@H]2C(=O)N[C@@H](C)C(=O)N[C@H](C(=O)O)Cc3ccc(OC[C@H](O)CN)c(c3)-c3cc2cc(OC[C@H](O)CN)c3O)c(N)n1` [Example 48, (8S,11S,14S)-14-[[(2S)-2-[[4-amino-2-(4-tert-butyl-2-hydroxy-6-methyl-phenyl)-6-methyl-pyrimidine-5-carbonyl]amino]-3-(sulfamoylamino)-propanoyl]-methyl-amino]-3,17-bis[(2R)-3-amino-2-hydroxy-propoxy]-18-hydroxy-11-methyl-10,13-dioxo-9,12-diazatri-cyclo[13.3.1.12,6]icosa-1(18),2(20),3,5,15(19), 16-hexaene-8-carboxylic acid], the MIC was 16 µM (≈ 16.6 µg/mL) in test [1] (setting [5]); 16 µM (≈ 16.6 µg/mL) in test [1] (setting [6]); 1 µM (≈ 1.04 µg/mL) in test [2] (setting [7]); 0.75 µM (≈ 0.779 µg/mL) in test [3] (setting [8]); 3 µM (≈ 3.11 µg/mL) in test [4] (setting [8]).
For `Cc1nc(N2CCC(C(C)(C)C)CC2)nc(N)c1C(=O)N[C@@H](CNS(N)(=O)=O)C(=O)N(C)[C@@H]1C(=O)N[C@@H](C)C(=O)N[C@H](C(=O)O)Cc2ccc(OC[C@H](O)CN)c(c2)-c2cc1cc(OC[C@H](O)CN)c2O` [Example 12, (8S,11S,14S)-18-hydroxy-11-methyl-14-[methyl-[(2S)-2-[[4-amino-2-(4-tert-butyl-1-piperidyl)-6-methyl-pyrimidine-5-carbonyl]amino]-3-(sulfamoylamino)-propanoyl]amino]-10,13-dioxo-3,17-bis[(2R)-3-amino-2-hydroxy-propoxy]-9,12-diazatricyclo-[13.3.1.12,6]icosa-1(18),2(20),3,5,15(19), 16-hexaene-8-carboxylic acid], the MIC in test [1] (setting [5]) was 16 µM (≈ 16.2 µg/mL); in test [1] (setting [6]), 16 µM (≈ 16.2 µg/mL); in test [2] (setting [7]) it was 3 µM (≈ 3.05 µg/mL); in test [3] (setting [8]), 2 µM (≈ 2.03 µg/mL); in test [4] (setting [8]), 16 µM (≈ 16.2 µg/mL).
As for `Cc1cc(-c2ccc(C(C)(C)C)cc2)nc(C)c1C(=O)N[C@@H](CCN)C(=O)N(C)[C@@H]1C(=O)N[C@@H](C)C(=O)N[C@H](C(=O)O)Cc2ccc(O)c(c2)-c2cc1ccc2OCCN` (racemic) [Example 644], the minimal inhibitory concentration (MIC) in test [1] (setting [9]) was 74 µM (≈ 60.8 µg/mL); in test [2] (setting [10]), 4.6 µM (≈ 3.78 µg/mL); in test [3] (setting [11]), 1.2 µM (≈ 0.986 µg/mL); in test [4] (setting [11]), 74 µM (≈ 60.8 µg/mL).
Turning to `COc1c(OC[C@H](O)CN)cc2cc1-c1cc(ccc1OC[C@H](O)CN)C[C@@H](C(=O)NCC#N)NC(=O)[C@H](C)NC(=O)[C@H]2N(C)C(=O)[C@H](CCN)NC(=O)c1c(C)nc(-c2ccc(C(C)(C)C)cc2)nc1C` (racemic) [Example 586], the MIC in test [1] (setting [9]) is 2 µM (≈ 1.99 µg/mL); in test [2] (setting [10]) it was 0.094 µM (≈ 0.0935 µg/mL); in test [3] (setting [11]) it was 0.094 µM (≈ 0.0935 µg/mL); in test [4] (setting [11]) it was 2 µM (≈ 1.99 µg/mL).
